Read-outs that look alike come from different tables or passages of the source.
Tests used:
[1] = target: T1, hM4R (Homo sapiens, UniProt P08173); test: hM4R radioligand binding ([3H]NMS, CHO cell membranes)
T1 construct: host or cells: CHO cells, stably transfected; crude membranes
T1 sequence (P08173 1-479): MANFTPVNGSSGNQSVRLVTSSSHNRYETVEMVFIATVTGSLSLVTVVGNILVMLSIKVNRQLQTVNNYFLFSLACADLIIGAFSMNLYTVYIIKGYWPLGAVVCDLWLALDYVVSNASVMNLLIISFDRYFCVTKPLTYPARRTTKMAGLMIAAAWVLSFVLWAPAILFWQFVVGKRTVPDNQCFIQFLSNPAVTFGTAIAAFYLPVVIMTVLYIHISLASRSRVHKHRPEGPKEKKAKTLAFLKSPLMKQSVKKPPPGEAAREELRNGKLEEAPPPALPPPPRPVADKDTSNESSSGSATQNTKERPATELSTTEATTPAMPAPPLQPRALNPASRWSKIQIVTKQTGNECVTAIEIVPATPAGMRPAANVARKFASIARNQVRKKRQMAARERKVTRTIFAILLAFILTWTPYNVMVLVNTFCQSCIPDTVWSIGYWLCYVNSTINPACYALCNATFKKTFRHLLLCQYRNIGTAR
Description: (§1) To clearly explain the obtained outcome, we engaged the radioligand binding experiment. The hM1–hM5 radioligand binding experiments were performed in the membrane fractions of Chinese hamster ovary cells (CHO) stably expressing human variants of muscarinic receptors. N-[^3H]Methylscopolamine was used as the radiolabeled ligand.[39] Three compounds were selected from ex vivo screening on guinea pig ileum. […] This compound is also not completely selective for the remaining muscarinic receptor subtypes with −log Ki values over 6. […] It is also a potent muscarinic M1R antagonist, and the M1R/M2R selectivity ratio is <10. It is worth noting that such nonspecific anticholinergics are often associated with neuropsychiatric and cognitive disturbances and that nonselective muscarinic M1R/M2R antagonists, such as scopolamine, can produce cognitive deficits. Further structural modifications of ADS10227 should be used to increase selectivity toward the M2R, as these may present fewer potential side effects associated with the activation of the phospholipase C signaling pathway.
(§2) The culture was derived from CHO cells stably transfected with the genes of human variants of muscarinic receptors. These were purchased from Missouri S&T cDNA Resource Center (Rolla, MO, USA). Cell cultures and crude membranes were prepared as described previously.[45] […]
(§3) All radioligand binding experiments were optimized and carried out according to general guidelines.[39] […] N-Methylscopolamine binding was measured directly in saturation experiments using six concentrations (30–1000 pM) of [^3H]NMS during incubation for 1 h (M2R), 3 h (M1R, M3R, and M4R), or 5 h (M5R). For calculations of the equilibrium dissociation constant (KD), concentrations of free [^3H]NMS were calculated by subtraction of bound radioactivity from total radioactivity in the sample and fitting eq 1 (Experimental Data analysis section). The binding of the tested ligands was determined in competition experiments with 100 pM [^3H]NMS. […] Nonspecific binding was determined in the presence of 1 μM unlabeled atropine. […]

[2] = target: T2, hM5R (Homo sapiens, UniProt P08912); test: hM5R radioligand binding ([3H]NMS, CHO cell membranes)
T2 construct: host or cells: CHO cells, stably transfected; crude membranes
T2 sequence (P08912 1-532): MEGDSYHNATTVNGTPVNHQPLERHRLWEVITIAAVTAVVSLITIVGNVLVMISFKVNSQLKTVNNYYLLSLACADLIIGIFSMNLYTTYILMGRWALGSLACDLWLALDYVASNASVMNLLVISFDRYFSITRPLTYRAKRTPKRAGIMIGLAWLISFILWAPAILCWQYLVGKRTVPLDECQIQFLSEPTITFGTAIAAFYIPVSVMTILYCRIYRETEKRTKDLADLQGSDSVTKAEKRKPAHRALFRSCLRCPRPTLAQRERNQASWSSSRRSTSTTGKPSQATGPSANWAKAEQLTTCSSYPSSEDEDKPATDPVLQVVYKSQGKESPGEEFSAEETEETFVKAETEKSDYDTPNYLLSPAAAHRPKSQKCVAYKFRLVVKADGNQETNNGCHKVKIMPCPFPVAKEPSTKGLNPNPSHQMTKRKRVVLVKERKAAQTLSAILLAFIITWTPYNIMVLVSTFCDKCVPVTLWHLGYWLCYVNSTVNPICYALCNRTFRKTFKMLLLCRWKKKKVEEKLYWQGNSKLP
Description: as §1, §2, §3

[3] = read-out: hM5R -log(Ki) ± sem (converted)

Ki ([1]; [3H]NMS, CHO membranes, read-out: hM4R -log(Ki) ± sem (converted)) [nM]	SMILES	Ki [1] [nM]	Ki ([2]; hM5R -log(Ki) ± sem) [nM]	Ki ([1]; [3H]NMS, CHO membranes, read-out: affinity to hM4R (Ki)) [nM]	Ki [2, 3] [nM]
–	N=C(N)N(CCCCN1CCN(CCCCCCCOc2ccccc2)CC1)Cc1ccccc1 [ADS1017]	68	468	–	–
–	N=C(N)N(CCCCN1CCN(C[C@H]2CC[C@@H](COc3ccccc3)CC2)CC1)Cc1ccccc1 [ADS10227, 1-{4-{4-{[4-(phenoxymethyl)cyclohexyl]methyl}piperazin-1-yl}but-1-yl}-1-(benzyl)guanidine]	–	–	5.1	195
15.1	[H]/N=C(/N)N(CCCCN1CCN(CC2CCC(COc3ccccc3)CC2)CC1)Cc1ccc(C(F)(F)F)cc1 (stereo not drawn) [ADS10239]	–	–	–	832

From publication PMC8291587, “Guanidine Derivatives: How Simple Structural Modification of Histamine H3R Antagonists Has Led to the Discovery of Potent Muscarinic M2R/M4R Antagonists” (ACS Chemical Neuroscience, 2021)
